From patent US8617604B2, “Pharmaceutical compositions with enhanced performance” (Bend Research, Inc., priority 2005, dated 2013)
Read-outs that look alike come from different tables or passages of the source.

Assays:
[1] = Aqueous solubility of the drugs; assay type: physicochemical; conditions: aqueous medium (not specified further)
[2] = In vitro membrane permeation test (maximum flux of drug across membrane); conditions: 100 μgA/mL; for Maximum Flux of Drug 5: Table 15, feed 0.5 wt % NaTC/POPC, permeate 60 wt % decanol in decane
Text: An Accurel® PP 1E microporous polypropylene membrane was obtained from Membrana GmbH (Wuppertal, Germany). The membrane was washed in isopropyl alcohol and rinsed in methanol in a sonicating bath for one minute at ambient temperature, and then allowed to air dry at ambient temperature. The feed side of the membrane was then plasma-treated to render it hydrophilic by placing a sample of the membrane in a plasma chamber. The atmosphere of the plasma chamber was saturated with water vapor at a pressure of 550 mtorr. A plasma was then generated using radio frequency (RF) power inductively coupled into the chamber via annular electrodes at a power setting of 50 Watts for 45 seconds. The contact angle of a drop of water placed on the surface of the plasma-treated membrane was about 40°. The contact angle of a drop of water placed on the permeate side of the same membrane was greater than about 110°.
A permeate reservoir was formed by capping the open end of a glass tube having an inside diameter of about 2 54 cm by gluing a sample of the plasma-treated membrane to the tube using an epoxy-based glue (LOCTITE® E-30CL HYSOL® from Henkel Loctite Corp, Rocky HUI, Conn.). The membrane was oriented so that its feed side was on the outside of the permeate reservoir and its permeate side was on the inside of the reservoir. The effective membrane area of the membrane capping the permeate reservoir was about 4.9 cm^2. The permeate reservoir was placed into a glass feed reservoir. The feed reservoir was equipped with a magnetic stir bar and the reservoir was placed on a stir plate and the stir rate was set to 100 rpm during the test. The apparatus was placed into a chamber maintained at 37° C. for the duration of the test.
To this was added 5 mL of an aqueous solution designed to model the fed state, consisting of a Phosphate Buffered Solution (PBS) containing 29.2 mM or 2 wt % sodium taurocholic acid and 5.6 mM of 1-palmitoyl-2-oleyl-sn-glycero-3-phosphocholine (NaTC/POPC). […] The feed solution was mixed using a vortex mixer for 1 minute. Before the membrane contacted the feed solution, 5 mL of 20 wt % decanol in decane was placed into the permeate reservoir. Time zero in the test was when the membrane was placed in contact with the feed solution. A 50 μL aliquot of the permeate solution was collected at 20, 40, 60, 90, 120, 180, 240, and 350 minutes. Samples were then diluted in 250 μL isopropyl alcohol and analyzed using HPLC.
The maximum flux of drug across the membrane (in units of μgA/cm^2-min) was determined by performing a least-squares fit to the data to obtain the maximum slope, multiplying the slope by the permeate volume (5 mL), and dividing by the membrane area (4.9 cm^2).
The maximum flux of drug across the membrane (in units of μgA/cm^2-min) was determined by estimating the tangent to the concentration versus time curve at time 0.
To this was added 5 mL of the Model Fasted Duodenum (MFD) solution consisting of Phosphate Buffered Saline (PBS) solution containing 7.3 mM sodium taurocholic acid and 1.4 mM of 1-palmitoyl-2-oleyl-sn-glycero-3-phosphocholine (0.5% NaTC/POPC). […] The feed solutions were each mixed using a vortex mixer for 1 minute. Before the membrane contacted the feed solutions, 5 mL of 20 wt % decanol in n-decane was placed into the permeate reservoir. Time zero in the test was when the membrane was placed in contact with the feed solution. […] Samples were then diluted in 250 μL isopropyl alcohol and analyzed using HPLC.

[3] = Microcentrifuge dissolution test; assay type: physicochemical
[4] = Table 19, Drug 2, MFD solution, 1000 μgA/mL
[5] = Table 18, Drug 1, PBS pH 6.5, 37° C., 1000 μgA/mL
[6] = Table 20, Drug 1, microcentrifuge dissolution test described above

`CCOC(=O)N1c2ccc(C(F)(F)F)cc2[C@@H](N(Cc2cc(C(F)(F)F)cc(C(F)(F)F)c2)C(=O)OC)C[C@H]1CC` [Drug 1, [2R,4S]-4[(3,5-bis-trifluoromethyl-benzyl)-methoxycarbonyl-amino]-2-ethyl-6-trifluoromethyl-3,4-dihydro-2H-quinoline-1-carboxylic acid ethyl ester] gave a solubility [1] of less than 0.1 µg/mL.
For `O=C1Cc2cc(CCN3CCN(c4nsc5ccccc45)CC3)c(Cl)cc2N1` [Control C6], the “Maximum Flux of Drug 5” value [2] was 0.07 μgA/cm^2-min.
In the case of `O=C1Cc2cc(CCN3CCN(c4nsc5ccccc45)CC3)c(Cl)cc2N1` [Control C5], the “Maximum Flux of Drug 5” value [2] is reported as 0.099 μgA/cm^2-min.
For `O=C1Cc2cc(CCN3CCN(c4nsc5ccccc45)CC3)c(Cl)cc2N1` [Drug 4], the solubility ([1]; free base form) was less than 0.1 µg/mL and the solubility ([1]; hydrochloride salt form) was roughly 10 µg/mL.
For `O=C(NOCC1CC1)c1ccc(F)c(F)c1Nc1ccc(I)cc1Cl` [Control C2], the AUC90 [3, 4] was 4200 min · μgA/mL and the MDC90 [3, 4] was 101 μgA/mL.
`CCOC(=O)N1c2ccc(C(F)(F)F)cc2[C@@H](N(Cc2cc(C(F)(F)F)cc(C(F)(F)F)c2)C(=O)OC)C[C@H]1CC` [Control C1] gave an AUC90 ([3]; Table 11, Drug 1, PBS pH 6.5, 37° C., area under the curve from 0 to 90 minutes) of less than 88 min · μgA/mL, an MDC90 ([3]; Table 11, Drug 1, PBS pH 6.5, 37° C., maximum drug concentration between 0 and 90 minutes) of less than 1 μgA/mL and an AUC90 [3, 5] of less than 100 min · μgA/mL. For the same compound, the MDC90 [3, 5] was less than 1 μgA/mL, the AUC90 [3, 6] was less than 100 min · μgA/mL and the MDC90 [3, 6] was less than 1 μgA/mL. The “Maximum Flux of Drug 1” value (120 μg/mL) was 0.091 μgA/cm^2-min and the “Maximum Flux of Drug 1” value (120 μgA/mL) was 0.08 μgA/cm^2-min.
In the case of `O=C1Cc2cc(CCN3CCN(c4nsc5ccccc45)CC3)c(Cl)cc2N1` [Control C4], the “Maximum Drug Flux” value ([2]; Table 21, Drug 4, feed 0.5% NaTC/POPC (MFD), permeate 60 wt % decanol in n-decane) is reported as 0.16 μgA/cm^2-min.
